± gives the standard deviation of the averaged measurements.
Tests used:
Assay in all cases: level (log10 ratio to DMSO vehicle control); higher = higher biomarker level / cell amount than vehicle control
[1] = compound: C=C(C)C(=O)OCCC(F)(F)C(F)(F)C(F)(F)C(F)(F)C(F)(F)C(F)(F)C(F)(F)C(F)(F)F [8:2 Fluorotelomer methacrylate] (in DMSO)
Description: (§1)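 BioMAP Diversity Plus panel of 12 human primary cell co-culture systems (3C, 4H, LPS, SAg, BT, BF4T, BE3C, CASM3C, HDF3CGF, KF3CT, MyoF, Mphg). Compounds were added 1 h before stimulation and left for 24 h (MyoF 48 h; BT 72 h for soluble read-outs or 6 d for IgG). Biomarkers were read by ELISA, cytotoxicity by SRB, PBMC viability and proliferation by Alamar Blue. Each well value was divided by the mean of 8 DMSO control wells on the same plate and log10 transformed; duplicate blinded samples were tested at 4 concentrations.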

[2] = compound: CCOC(=O)CC(=O)C(F)(F)C(F)(F)F [Ethyl pentafluoropropionyl acetate] (in DMSO)
Description: as §1

[3] = compound: O=C(O)C(F)(F)C(F)(F)C(F)(F)C(F)(F)C(=O)O [Octafluoroadipic acid] (in DMSO)
Description: as §1

[4] = compound: O=C(O)C(F)(F)OC(F)(F)C(F)(F)OC(F)(F)C(F)(F)OC(F)(F)C(F)(F)C(F)(F)C(F)(F)F [Perfluoro-3,6,9-trioxatridecanoic acid] (in DMSO); details: 6700 nM
Description: as §1

[5] = compound: O=C(O)CCC(F)(C(F)(F)F)C(F)(F)F [4,4-bis(Trifluoromethyl)-4-fluoropropanoic acid] (in DMSO)
Description: as §1

[6] = compound: O=S(=O)(O)C(F)(F)C(F)(F)C(F)(F)C(F)(F)C(F)(F)C(F)(F)C(F)(F)F [Perfluoroheptanesulfonic acid] (in DMSO)
Description: as §1

[7] = compound: OCC(F)(F)C(F)(F)C(F)(F)C(F)F [1H,1H,5H-Perfluoropentanol] (in DMSO)
Description: as §1

Test System | level (log10) ([1]; 6700 nM) | level (log10) ([1]; 20000 nM) | level (log10) ([2]; 6700 nM) | level (log10) ([2]; 20000 nM) | level (log10) ([2]; 60000 nM) | level (log10) ([3]; 6700 nM) | level (log10) ([3]; 20000 nM) | level (log10) ([3]; 60000 nM) | level (log10) [4] | level (log10) ([5]; 6700 nM) | level (log10) ([5]; 20000 nM) | level (log10) ([5]; 60000 nM) | level (log10) ([6]; 1500 nM) | level (log10) ([6]; 4400 nM) | level (log10) ([6]; 13000 nM) | level (log10) ([6]; 40000 nM) | level (log10) ([7]; 6700 nM) | level (log10) ([7]; 20000 nM) | level (log10) ([7]; 60000 nM)
LPS:CCL2/MCP-1 | -0.0045 ± 0.047 | 0.042 ± 0.0085 | -0.025 ± 0.0085 | -0.0345 ± 0.018 | -0.0125 ± 0.018 | -0.0015 ± 0.044 | -0.0045 ± 0.026 | 0.0205 ± 0.0078 | -0.0325 ± 0.023 | 0.024 ± 0.037 | 0 ± 0.014 | 0.0155 ± 0.07 | 0.0045 ± 0.037 | -0.0455 ± 0.026 | -0.005 ± 0.042 | 0.014 ± 0.1 | -0.006 ± 0.0071 | 0.004 ± 0.014 | 0.007 ± 0.04
LPS:CD40 | 0.0345 ± 0.0092 | -0.028 ± 0.11 | 0.015 ± 0.0014 | -0.0245 ± 0.015 | -0.0335 ± 0.0064 | -0.0035 ± 0.04 | -0.005 ± 0.0071 | -0.0245 ± 0.0064 | -0.015 ± 0.024 | 0.005 ± 0.027 | -0.0115 ± 0.021 | -0.0385 ± 0.0035 | 0.035 ± 0.075 | 0.029 ± 0.096 | 0.0625 ± 0.1 | 0.001 ± 0.14 | -0.017 ± 0.016 | -0.0085 ± 0.005 | 0.0145 ± 0.015
LPS:CD62E/E-Selectin | 0.028 ± 0.0014 | 0.027 ± 0.035 | 0.015 ± 0.0085 | 0.0055 ± 0.018 | 0.0095 ± 0.039 | 0.002 ± 0.023 | -0.008 ± 0.0057 | 0.0085 ± 0.022 | -0.024 ± 0.0057 | 0.0115 ± 0.023 | 0.0055 ± 0.013 | -0.007 ± 0.016 | 0.0155 ± 0.015 | -0.0065 ± 0.0035 | -0.0075 ± 0.026 | 0.0095 ± 0.042 | -0.0165 ± 0.00071 | 0.0125 ± 0.0064 | 0.0055 ± 0.022
LPS:CD69 | -0.0425 ± 0.04 | -0.0355 ± 0.05 | -0.02 ± 0.013 | -0.048 ± 0.02 | -0.021 ± 0.072 | 0.0545 ± 0.076 | 0.0595 ± 0.047 | 0.0515 ± 0.064 | 0.013 ± 0.0014 | -0.0145 ± 0.077 | -0.0265 ± 0.015 | -0.045 ± 0.025 | -0.01 ± 0.025 | -0.006 ± 0.0057 | -0.004 ± 0.025 | -0.015 ± 0.061 | -0.02 ± 0.011 | -0.0015 ± 0.013 | 0.0175 ± 0.0078
LPS:CD106/VCAM-1 | -0.032 ± 0.054 | -0.0515 ± 0.049 | 0.004 ± 0.011 | -0.0105 ± 0.037 | -0.0135 ± 0.026 | -0.0235 ± 0.037 | -0.0175 ± 0.025 | -0.017 ± 0.048 | 0.001 ± 0.016 | -0.016 ± 0.034 | -0.0255 ± 0.0092 | -0.023 ± 0.021 | 0.015 ± 0.023 | 0.009 ± 0.031 | -0.0235 ± 0.052 | -0.01 ± 0.035 | 0.007 ± 0.014 | -0.008 ± 0.0042 | 0.0095 ± 0.0035
LPS:CD141/Thrombomodulin | -0.021 ± 0.038 | -0.064 ± 0.0099 | 0.0635 ± 0.016 | 0.0625 ± 0.012 | 0.077 ± 0.055 | -0.014 ± 0.0014 | -0.0135 ± 0.028 | 0.006 ± 0.014 | -0.015 ± 0.0028 | -0.0025 ± 0.0035 | -0.009 ± 0.028 | -0.002 ± 0.0099 | 0.028 ± 0.011 | -0.0075 ± 0.026 | 0.006 ± 0.03 | -0.0065 ± 0.023 | -0.0125 ± 0.0035 | 0.008 ± 0.02 | 0.023 ± 0.0099
LPS:CD142/Tissue Factor | 0.0615 ± 0.063 | 0.0315 ± 0.083 | -0.01 ± 0.021 | -0.032 ± 0.028 | -0.002 ± 0.033 | -0.0105 ± 0.022 | 0.02 ± 0.034 | 0.0215 ± 0.0078 | -0.091 ± 0.021 | 0.045 ± 0.031 | 0.038 ± 0.059 | 0.02 ± 0.051 | 0.0145 ± 0.049 | 0.006 ± 0.0042 | 0.0615 ± 0.063 | 0.0555 ± 0.061 | -0.001 ± 0.021 | 0.017 ± 0.03 | 0.023 ± 0.021
LPS:CXCL8/IL-8 | -0.037 ± 0.05 | -0.0225 ± 0.076 | -0.022 ± 0.025 | -0.01 ± 0.0071 | -0.0005 ± 0.023 | 0.0015 ± 0.032 | -0.0035 ± 0.054 | 0.0415 ± 0.1 | -0.0465 ± 0.061 | 0.011 ± 0.0028 | 0.007 ± 0.02 | 0.0135 ± 0.054 | 0.015 ± 0.0071 | -0.038 ± 0.0014 | -0.0185 ± 0.033 | 0.031 ± 0.09 | 0.004 ± 0.0057 | 0.0185 ± 0.005 | 0.001 ± 0.025
LPS:IL-1alpha | 0.074 ± 0.0057 | 0.0625 ± 0.077 | 0 ± 0.034 | -0.0335 ± 0.025 | 0.0115 ± 0.019 | -0.003 ± 0.0028 | 0.017 ± 0.045 | 0.029 ± 0.047 | -0.038 ± 0.013 | 0.009 ± 0.072 | 0.0215 ± 0.022 | 0.0215 ± 0.032 | 0.0125 ± 0.033 | -0.0015 ± 0.026 | -0.002 ± 0.069 | 0.056 ± 0.095 | -0.048 ± 0.021 | -0.0295 ± 0.0064 | -0.003 ± 0.0099
LPS:M-CSF | -0.019 ± 0.021 | -0.0635 ± 0.00071 | -0.021 ± 0.011 | 0.0085 ± 0.019 | 0.012 ± 0.088 | 0.002 ± 0.0099 | 0.0175 ± 0.023 | 0.0005 ± 0.00071 | 0.009 ± 0.018 | -0.0345 ± 0.0021 | -0.0145 ± 0.029 | -0.0245 ± 0.00071 | -0.008 ± 0.027 | -0.0185 ± 0.015 | -0.0405 ± 0.013 | -0.02 ± 0.024 | -0.01 ± 0.0014 | -0.0015 ± 0.029 | 0.0125 ± 0.049
LPS:SRB | -0.0085 ± 0.016 | -0.0005 ± 0.023 | 0.0015 ± 0.0021 | 0 ± 0.0028 | -0.004 ± 0.0085 | 0.0015 ± 0.0064 | 0.004 ± 0.0085 | -0.0055 ± 0.0064 | 0.008 ± 0.0071 | -0.0045 ± 0.0064 | -0.0035 ± 0.00071 | 0.0135 ± 0.0092 | -0.0105 ± 0.005 | -0.0165 ± 0.0021 | -0.002 ± 0.0085 | 0.007 ± 0.02 | -0.017 ± 0.0014 | -0.0115 ± 0.00071 | -0.0005 ± 0.0078

— the supplement of paper PMC10331698
